How the values were obtained:
[1] = tested on: MGG8; assay: Sphere-forming ability (anchorage-independent cell proliferation), MGG8; type: cell-based, human; details: MGG8 (high FTSJ1 expression), 1 week, 0-5000 nM; FIG. 4B
Procedure: (§1) To verify whether the expression analysis of these gene clusters contributes to predicting the anti-cancer effect by the FTSJ1 inhibitors, the FTSJ1 gene was actually used as an example to analyze the anti-cancer effect of the FTSJ1 inhibitor PVZF2001 on human malignant brain tumor cell lines. Human malignant brain tumor cell lines MGG4, MGG8, MGG18, MGG23 were treated with stem cell medium (Neurobasal, B-27, N-2, 20 ng/mL EGF, 20 ng/mL bFGF) containing different concentrations (0 nm, 200 nM, 500 nM, 1000 NM, 2000 NM, 5000 nM) of PVZF2001 for 1 week, and anchorage-independent cell proliferation was evaluated based on sphere-forming ability.

[2] = tested on: polyglutamine luciferase reporter; assay: Screening: polyglutamine luciferase reporter assay in NUGC3 cells (luminescence % of DMSO); type: cell-based, human; details: NUGC3 cells, luminescence relative to DMSO
[3] = Body weight in the anti-tumor effect evaluation test; type: in vivo, immunodeficient mice (BALB/c-nu/nu); details: 20 mg/kg intraperitoneally every other day
Procedure: A cell suspension (1×10^6 cells/100 μL), in which triple-negative breast cancer cell line MDA-MB-231 was suspended in phosphate buffer (PBS, produced by FUJIFILM Wako Pure Chemical Corporation), was inoculated subcutaneously in the dorsal lumbar region of immunodeficient mice (BALB/c-nu/nu, female, 6 weeks old, purchased from Shimizu Laboratory Supplies Co., Ltd.) using a syringe with a 23 G injection needle (Terumo Corporation). After confirming that the cancer cells engrafted under the skin of the mice to form tumor tissues, and that the tumor volume reached 100 mm^3, the obtained tumor model mice were used for the following evaluation test. First, each compound for evaluation was dissolved in corn oil (produced by Sigma-Aldrich Co., LLC) and administered intraperitoneally. PVZF0024 was administered at 100 mg/kg and PVZF2001 was administered at 20 mg/kg to the tumor model mice every other day. At each administration, the tumor diameter was measured with a caliper. The tumor volume was calculated according to the following formula: V=(3.14×D×d^2)/6 (wherein V is the tumor volume, D is the tumor major axis, and d is the tumor minor axis) (Wu. et al., Clin. Cancer Res., 2013 Oct. 15; 19(20): 5699-5710).
FIGS. 1 and 2 show the antitumor effects of PVZF0024 and PVZF2001.

[4] = tested on: MGG18; assay: Sphere-forming ability (anchorage-independent cell proliferation), MGG18; type: cell-based, human; details: MGG18 (high FTSJ1 expression), 1 week, 0-5000 nM; FIG. 4B
Procedure: as §1

[5] = tested on: MGG4; assay: Sphere-forming ability (anchorage-independent cell proliferation), MGG4; type: cell-based, human; details: MGG4 (high FTSJ1 expression), 1 week, 0-5000 nM; FIG. 4B
Procedure: as §1

## CC(C)c1cc(C(C)C)c(S(=O)(=O)CC2CC(C)(C)CC(C)(C)C2)c(C(C)C)c1 [PVZF2001]
[1]
  anchorage-independent cell proliferation (sphere-forming ability): showed proliferation inhibition at low concentrations
[2]; 5 μM
  Polyglutamine: 41.05%
[2]; 10 μM
  Polyglutamine: 19.01%
[3]
  weight loss due to administration: no weight loss due to administration was observed
[4]
  anchorage-independent cell proliferation (sphere-forming ability): showed proliferation inhibition at low concentrations
[5]
  anchorage-independent cell proliferation (sphere-forming ability): showed proliferation inhibition at low concentrations

— patent US20230210834A1, “RNA METHYLTRANSFERASE INHIBITOR, SCREENING METHOD THEREFOR, ANTI-CANCER AGENT EFFICACY ASSESSMENT MARKER, AND KIT FOR EFFECTIVELY PREDICTING FTSJ1 INHIBITOR” (National University Corporation Okayama University, priority 2019, published 2023)
